# From US6900198B2, “Synthetic catalytic free radical scavengers useful as antioxidants for prevention and therapy of disease” (Eukarion, Inc., priority 1995, dated 2005)
# Columns and labels:
# SJL female mice = assay: Experimental Autoimmune Encephalitis (EAE); format: in vivo
# Description: EAE is an animal model of multiple sclerosis.
# Mice in both groups were immunized with an encephalitogenic PLP peptide in complete Freund's adjuvant subcutaneously, followed by Petrussis Toxin (IV). Petrussis toxin was repeated on day 3 post immunization.
# Animals were scored as follows:
# Stage I: Limp tail syndrome
# Stage II: Hind leg paralysis
# Stage III: Hind leg paralysis-Dragging movement
# Stage IV: Paralytic immobility, weight loss
# [1] = system: endotoxin-induced ALI in pigs; assay: Acute lung injury in endotoxemic pigs; format: in vivo; conditions: treatment begun prior to LPS infusion
# Protocol: All pigs were pre-treated at T=−18 h with Escherichia coli 0111:B4 LPS (20 μg/kg). Pigs in the RL group (n=4) received no further treatment. […] Lung wet-to-dry weight ratio was determined post-mortem. Lung lipid peroxidation was estimated fluorometrically by measuring thiobarbituric acid reactive products in the lipid fraction of lung parenchymal tissue harvested at T=300 min.
# Hippocampal slices [2] = assay: Lactic acid (acidosis)-induced lipid peroxidation in hippocampal slices; format: cell-based, Sprague-Dawley rats; conditions: 50 μM; 30 mM lactate, pH 5.0, 100 minutes
# Protocol: Hippocampal slices (400 μm thick) were obtained from Sprague-Dawley rats (150-200 g) and collected in preoxygenated (95% O2/5% CO2) Krebs-Ringer phosphate medium (pH 7.4) containing NaCl 120 mM, KCl 5 mM, CaCl2 1.3 mM, MgCl2 1.2 mM, NaPhosphate 16 mM (pH 7.4) and glucose 10 mM. After 15 minutes preincubation in a water bath at 35° C. under agitation, the buffer was replaced with the same buffer (control) or a modified buffer (lactate buffer) containing NaCl 90 mM, KCl 5 mM, CaCl2 1.3 mM, MgCl2 1.2 mM, NaPhosphate 16 mM and lactic acid 30 mM (pH 5.0). […] After 100 minutes, slices were collected and homogenized in 0.9 ml of TCA 5%, whereas 0.35 ml of TCA 5% was added to 0.5 ml of the incubation medium. Lipid peroxidation was measured by adding 0.25 ml of a thiobarbituric acid reagent (TBAR) to 0.85 ml of the TCA extracts and incubating the mixture for 60 minutes at 85-93° C. Lipids were then extracted with 2×0.5 ml 1-butanol by vortexing for 10 seconds, then centrifuging at 2,000 rpm for 10 minutes. The absorbance of peroxidized lipids in the alcohol phase was measured in a spectrophotometer at 532 nm. Data were expressed as nmoles of malondialdehyde (MDA) using authentic MDA to establish a standard curve. Proteins were measured from an aliquot of the TCA extracts using the method of Bradford and the final results were calculated as nmoles MDA formed/mg protein. […]
# Hippocampal slices [3] = assay: Anoxia in hippocampal slices, EPSP recovery; format: cell-based, Sprague-Dawley rats; conditions: C7 50 μM
# Description: Anoxia in hippocampal slices. […] A glass recording micropipet was positioned in CA1 stratum radiatum to record excitatory postsynaptic potential (EPSPs) generated by electrical stimulation of the Schaffer-commissural pathway by a bipolar stimulation electrode at a frequency of 0.033 Hz. During anoxic episodes, the oxygen supply was replaced with 100% N2 gas. N2 was supplied for 90 seconds following electrical silence after which O2 was reintroduced. Recovery of EPSPs (both slope and amplitude) was recorded for 50 minutes, at which time the final viability of the slices was determined, with viability being defined as the ability of the slice to generate a 3 mV EPSP.
# [4] = SOD activity, cytochrome c as acceptor, IC50 (Example 2); format: biochemical; conditions: read-out: SOD activity IC50 (half-maximally active concentration)
# Protocol: Superoxide dismutase (SOD) activity was assayed by following the inhibition of the reduction of an electron acceptor molecule in the presence of the free-radical generating system xanthine/xanthine oxidase (McCord et al. (1973) Superoxide and Superoxide Dismutase in “Oxidases and Related Redox Systems, vol. I, King et al. eds., University Park press, Baltimore, pp. 51-76). The assay mixture consisted of 50 mM sodium phosphate, pH 7.8, 120 μM xanthine, 0.2 units/ml xanthine oxidase, with acceptor molecule and salen manganese compound, as indicated. Assays were conducted at 27±0.2° C. using a water-jacketed cell holder in a Beckman DU7400 spectrophotometer. In most cases, oxidized cytochrome c, at 0.13 mg/ml, was employed as acceptor and its reduction was monitored spectrophotometrically at 550 nm. In some experiments, nitroblue tetrazolium (NBT), at 80 μM, was substituted for cytochrome c as the acceptor. NBT reduction was also monitored at 550 nm. An estimated extinction coefficient for NBT reduction, 20,800 M^−1cm^−1, determined empirically by exhaustive reduction of NBT in the reaction mixture described above, was employed where indicated. This value agreed well with reported extinction coefficients for reduced tetrazolium dyes. […] Conversion of xanthine to urate was calculated using ε290's of […] for urate and 4050 M^−1cm^−1 for xanthine. […]
# [5] = system: acidosis-induced mucosal injury; assay: In vitro model for acidosis-induced mucosal injury
smiles,measurement,setting,value
[Cl][Mn]1[O]c2ccccc2C=NCCN=Cc2ccccc2[O]1 [Compound C7],mice that developed symptomatic EAE,"SJL female mice; fifth week, three weeks after treatment was stopped, group of 10 mice",six
same,mice that developed symptomatic EAE,"SJL female mice; third week following immunization, 1 mg/mouse daily IP, control 8 of 20",one of 10
same,effect on manifestations of LPS-induced ALI,[1],prevents many of the manifestations of LPS-induced ALI
same,lactate-induced increase in lipid peroxidation (malondialdehyde),Hippocampal slices [2],totally abolished the increase in lipid peroxidation
same,protection against anoxia-induced decrease in synaptic response in CA1 (EPSP slope and amplitude),Hippocampal slices [3],significant degree of protection
same,IC50,[4],3.2 µM
same,protection in acidosis-induced mucosal injury,[5],protective
